Source: patent publication US20020127281A1, “Stabilized hyrogen peroxide solutions” (priority 2000, published 2002)

Test: stabilization of peroxy compounds by the present stabilizer system
Assay type: physicochemical
Description: Trace amounts of peroxy compounds stabilized with a hydrogen peroxide stabilizer, especially diethylene triamine penta(methylene phosphonic acid) or 1-hydroxyethylidene-1,1-diphosphonic acid may be utilized as a preservative for drugs, eyewashes, or other solutions containing an active ingredient designed to be used in the ocular environment. The preservative according to the present invention may be used in the ocular environment. Furthermore, the preservative according to the present invention may be used in any ophthalmic solution as long as the active ingredient in that solution is compatible with trace amounts of the peroxy compounds. Also, virtually any peroxy compound may be used so long as it is hydrolyzed in water to produce hydrogen peroxide. Examples of such sources of hydrogen peroxide, which provide an effective resultant amount of hydrogen peroxide, include sodium perborate decahydrate, sodium peroxide and urea peroxide. […] Hydrogen peroxide concentrations from about 2 ppm to about 1000 ppm are useful in the present invention. Therefore, peroxy compounds that generate hydrogen peroxide from about 2 ppm to about 1000 ppm are useful in the present invention. More preferably, the concentration of hydrogen peroxide from is about 10 ppm to about 1000 ppm.

## CC(=O)OO [peracetic acid]
  stabilization by the present system: cannot be stabilized
